# Values joined by “and” are separate entries in the source; they are usually repeats but may differ in a detail not shown here. Identical values can stand only once.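 Values below derive from 48-hour exposures of cells grown in 96-well plates, with endpoints linearly interpolated between the two concentrations bracketing the appropriate inhibition level. GI50 marks 50% less growth. TGI: concentration producing complete growth inhibition.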
# What was measured:
# Experiment in all cases: growth of human tumour cells (NCI), 48 h
# [1] = system: HT29 colon
# [2] = system: OVCAR-3 ovarian
# [3] = system: HCT-116 colon
# [4] = system: OVCAR-4 ovarian
# [5] = system: MCF7 breast
# [6] = system: SR leukemia
# [7] = system: MALME-3M melanoma
# [8] = system: TK-10 renal
# [9] = system: MDA-MB-231 breast
# [10] = system: DU-145 prostate
# [11] = system: 786-0 renal
# [12] = system: UACC-257 melanoma
# [13] = system: MDA-MB-435
# [14] = system: HOP-62 NSCLC
# [15] = system: T-47D breast
# [16] = system: MDA-N
# [17] = system: EKVX NSCLC
# [18] = system: SNB-75 CNS
# [19] = system: HCC-2998 colon
# [20] = system: ACHN renal
# [21] = system: NCI-H522 lung
# [22] = system: RPMI-8226 leukemia
# [23] = system: SN12C renal
# [24] = system: SK-MEL-2 melanoma
# [25] = system: CAKI-1 renal
# [26] = system: HCT-15 colon
# [27] = system: SF-268 CNS
# [28] = system: OVCAR-5 ovarian
# [29] = system: SK-MEL-5 melanoma
# [30] = system: A498 renal
# [31] = system: HS 578T breast
# [32] = system: NCI-H226 lung
# [33] = system: KM12 colon
# [34] = system: RXF 393 renal
# [35] = system: PC-3 prostate
# [36] = system: MOLT-4 leukemia
# [37] = system: SF-295 CNS
# [38] = system: U251 CNS
# [39] = system: UACC-62 melanoma
# [40] = system: OVCAR-8 ovarian
# [41] = system: SNB-19 CNS
# [42] = system: K-562 leukemia
# [43] = system: IGROV1 ovarian
# [44] = system: SW-620 colon
# [45] = system: COLO 205 colon
# [46] = system: HL-60(TB) leukemia
# [47] = system: SK-MEL-28 melanoma
# [48] = system: LOX IMVI melanoma
# [49] = system: UO-31 renal
# [50] = system: BT-549 breast
# [51] = system: NCI-H460 lung
# [52] = system: NCI-H23 lung
# [53] = system: NCI/ADR-RES ovarian
# [54] = system: HOP-92 NSCLC
# [55] = system: SF-539 CNS
# [56] = system: SK-OV-3 ovarian
# [57] = system: M14 melanoma
# [58] = system: CCRF-CEM leukemia
# [59] = system: A549 NSCLC
compound,measurement,setting,value
CC(C)=CCC/C(C)=C\CCC1(C)OC(=O)C2CC21 (centres undefined),GI50,[1],72.8 µM and 34.1 µM
same,TGI,[1],> 100 µM
same,TGI,[2],> 100 µM
same,GI50,[3],52.3 µM and 16.6 µM
same,TGI,[3],> 100 µM and 31.6 µM
same,GI50,[4],> 100 µM and 19.5 µM
same,TGI,[4],> 100 µM and 42.6 µM
same,GI50,[5],64.9 µM and 21.6 µM
same,TGI,[5],> 100 µM and 52.6 µM
same,GI50,[6],24.3 µM and 6.4 µM
same,TGI,[6],> 100 µM and 37.2 µM
same,TGI,[7],> 100 µM
same,TGI,[8],> 100 µM
same,TGI,[9],> 100 µM
same,TGI,[10],> 100 µM
same,GI50,[11],> 100 µM and 17.5 µM
same,TGI,[11],> 100 µM and 32.7 µM
same,TGI,[12],> 100 µM
same,GI50,[13],73.9 µM and 23.1 µM
same,TGI,[13],> 100 µM and 56.7 µM
same,TGI,[14],> 100 µM
same,TGI,[15],> 100 µM
same,GI50,[16],> 100 µM and 23.8 µM
same,TGI,[16],> 100 µM and 85.1 µM
same,GI50,[17],> 100 µM and 40 µM
same,TGI,[17],> 100 µM
same,TGI,[18],> 100 µM
same,TGI,[19],> 100 µM
same,GI50,[20],> 100 µM and 25.1 µM
same,TGI,[20],> 100 µM and 59.8 µM
same,GI50,[21],52.4 µM and 19.2 µM
same,TGI,[21],> 100 µM and 47.1 µM
same,TGI,[22],68.1 µM and 44.2 µM
same,GI50,[23],> 100 µM and 26.4 µM
same,TGI,[23],> 100 µM and 64.2 µM
same,TGI,[24],> 100 µM
same,TGI,[25],> 100 µM and 43 µM
same,GI50,[26],83.8 µM and 24.7 µM
same,TGI,[26],> 100 µM
same,TGI,[27],> 100 µM
same,TGI,[28],> 100 µM
same,TGI,[29],> 100 µM
same,TGI,[30],> 100 µM
same,GI50,[31],> 100 µM and 36.5 µM
same,TGI,[31],> 100 µM
same,GI50,[32],48.4 µM and 18.8 µM
same,TGI,[32],> 100 µM and 42.6 µM
same,GI50,[33],71.2 µM and 24.9 µM
same,TGI,[33],> 100 µM and 62.8 µM
same,TGI,[34],92.3 µM
same,TGI,[35],> 100 µM and 85.2 µM
same,TGI,[36],50 µM and 35 µM
same,GI50,[37],> 100 µM and 49.8 µM
same,TGI,[37],> 100 µM
same,GI50,[38],51.5 µM and 24.1 µM
same,TGI,[38],> 100 µM and 61.4 µM
same,GI50,[39],> 100 µM and 34.4 µM
same,TGI,[39],> 100 µM
same,GI50,[40],71.6 µM and 20.3 µM
same,TGI,[40],> 100 µM and 45.5 µM
same,TGI,[41],> 100 µM
same,TGI,[42],48.4 µM and 40.5 µM
same,GI50,[43],> 100 µM and 18.2 µM
same,TGI,[43],> 100 µM and 37.2 µM
same,GI50,[44],84.1 µM and 33.8 µM
same,TGI,[44],> 100 µM
same,TGI,[45],> 100 µM
same,TGI,[46],49.9 µM and 26.6 µM
same,GI50,[47],> 100 µM and 37.5 µM
same,TGI,[47],> 100 µM
same,TGI,[48],81.8 µM and 29 µM
same,TGI,[49],> 100 µM
same,TGI,[50],> 100 µM
same,GI50,[51],41.7 µM and 14 µM
same,TGI,[51],> 100 µM and 27 µM
same,TGI,[52],> 100 µM
same,TGI,[53],> 100 µM
CSC1=NNC(SC)=NN1,TGI,[1],0.316 µM
same,TGI,[2],0.359 µM
same,TGI,[3],0.303 µM
same,TGI,[4],0.309 µM
same,TGI,[5],0.396 µM
same,TGI,[6],0.0483 µM
same,TGI,[7],0.289 µM
same,TGI,[8],0.357 µM
same,TGI,[9],0.458 µM
same,TGI,[10],0.345 µM
same,TGI,[11],0.328 µM
same,TGI,[12],0.258 µM
same,TGI,[13],0.321 µM
same,TGI,[14],0.398 µM
same,TGI,[15],0.33 µM
same,TGI,[16],0.319 µM
same,TGI,[17],0.327 µM
same,TGI,[19],> 1 µM
same,TGI,[20],0.304 µM
same,TGI,[21],0.555 µM
same,TGI,[22],> 1 µM
same,TGI,[23],0.322 µM
same,TGI,[24],0.281 µM
same,TGI,[54],0.316 µM
same,TGI,[25],0.311 µM
same,TGI,[26],0.307 µM
same,TGI,[55],0.413 µM
same,TGI,[56],0.382 µM
same,TGI,[27],0.351 µM
same,TGI,[28],0.324 µM
same,TGI,[29],0.354 µM
same,TGI,[30],> 1 µM
same,TGI,[31],0.38 µM
same,TGI,[32],0.389 µM
same,TGI,[33],0.376 µM
same,TGI,[35],0.303 µM
same,TGI,[36],0.114 µM
same,TGI,[57],0.335 µM
same,TGI,[37],0.34 µM
same,TGI,[38],0.319 µM
same,TGI,[39],0.29 µM
same,TGI,[40],0.812 µM
same,TGI,[41],0.336 µM
same,TGI,[42],0.308 µM
same,TGI,[43],0.302 µM
same,TGI,[44],0.307 µM
same,TGI,[45],0.413 µM
same,TGI,[46],0.407 µM
same,TGI,[58],> 1 µM
same,TGI,[59],0.406 µM
same,TGI,[47],0.326 µM
same,TGI,[48],0.287 µM
same,TGI,[49],0.328 µM
same,TGI,[50],0.348 µM
same,TGI,[51],0.385 µM
same,TGI,[52],0.7 µM
same,TGI,[53],> 1 µM
O=C1NC(N2CCCCC2)=N/C1=C\c1ccc(Cl)cc1,TGI,[1],35.7 µM
same,TGI,[2],> 100 µM
same,TGI,[3],92.7 µM
same,TGI,[4],> 100 µM
same,TGI,[5],> 100 µM
same,TGI,[6],> 100 µM
same,TGI,[7],> 100 µM
same,TGI,[8],> 100 µM
same,TGI,[9],> 100 µM
same,TGI,[10],> 100 µM
same,TGI,[11],79.9 µM
same,TGI,[12],> 100 µM
same,TGI,[13],> 100 µM
same,TGI,[14],> 100 µM
same,TGI,[15],> 100 µM
same,TGI,[16],> 100 µM
same,TGI,[17],> 100 µM
same,TGI,[19],60.5 µM
same,TGI,[20],> 100 µM
same,TGI,[21],> 100 µM
same,TGI,[22],> 100 µM
same,TGI,[23],> 100 µM
same,TGI,[24],> 100 µM
same,TGI,[54],85.5 µM
same,TGI,[25],> 100 µM
same,TGI,[26],> 100 µM
same,TGI,[55],> 100 µM
same,TGI,[56],> 100 µM
same,TGI,[27],> 100 µM
same,TGI,[28],> 100 µM
same,TGI,[29],> 100 µM
same,TGI,[31],> 100 µM
same,TGI,[32],96.1 µM
same,TGI,[33],> 100 µM
same,TGI,[34],> 100 µM
same,TGI,[35],> 100 µM
same,TGI,[36],> 100 µM
same,TGI,[57],> 100 µM
same,TGI,[37],> 100 µM
same,TGI,[38],> 100 µM
same,TGI,[39],> 100 µM
same,TGI,[40],64.8 µM
same,TGI,[41],> 100 µM
same,TGI,[43],> 100 µM
same,TGI,[44],> 100 µM
same,TGI,[45],> 100 µM
same,TGI,[46],> 100 µM
same,TGI,[58],> 100 µM
same,TGI,[59],> 100 µM
same,TGI,[47],> 100 µM
same,TGI,[48],> 100 µM
same,TGI,[49],> 100 µM
same,TGI,[50],> 100 µM
same,TGI,[52],> 100 µM
same,TGI,[53],> 100 µM
